This is an account of results in US9586969B2, “Microbiocidal heterobicyclic derivatives” (Syngenta Participations AG, priority 2014, dated 2017).

Holding throughout (format): cell-based
The subject of assay [1] is Botryotinia fuckeliana (Botrytis cinerea). Briefly: Botryotinia fuckeliana (Botrytis cinerea) / liquid culture (Gray mould). As to conditions: 72 h, read-out: disease control.
In assay [2] the test system is Glomerella lagenarium (Colletotrichum lagenarium). The experiment in a line: Glomerella lagenarium (Colletotrichum lagenarium) / liquid culture (Anthracnose). The following applies: Colletotrichum orbiculare, read-out: disease control.
Assay [3] relates to Monographella nivalis (Microdochium nivale). Briefly: Monographella nivalis (Microdochium nivale) / liquid culture (Foot rot cereals). The following applies: 96 h, read-out: disease control.
In assay [4] the test system is Fusarium culmorum. Briefly: microbe, parasite or virus in culture. As to conditions: 72 h, read-out: disease control.
Setting [5] is: 200 ppm, liquid culture, 24° C., inhibition of growth determined photometrically 3-4 days after application, vs untreated control.
Where [6] appears, read: 200 ppm, liquid culture, 24° C., inhibition of growth measured photometrically 3-4 days after application, vs untreated control.
Where [7] appears, read: 200 ppm, liquid culture, 24° C., inhibition of growth determined photometrically 4-5 days after application, vs untreated control.

Where two headings read alike, the source gives them in different places.

For `CC1(C)Cc2ccccc2C(c2cnn3c(F)ccc3c2)=N1` [E 8], the inhibition of growth at 200 ppm in assay [1] (setting [5]), in assay [2] (setting [6]) and in assay [3] (setting [7]) was at least 80% throughout.
Regarding `CC1(C)N=C(c2cnn3c(F)cc(C(F)(F)F)c3c2)c2cccc(F)c2C1(C)C` [E 35], the inhibition of growth at 200 ppm in assay [1] (setting [5]) and in assay [2] (setting [6]) was at least 80% each time.
Turning to `CC1(C)Cc2c(cccc2-c2ccccc2F)C(c2cnn3c(F)ccc3c2)=N1` [E 28], the inhibition of growth at 200 ppm in assay [1] (setting [5]) and in assay [2] (setting [6]) was at least 80% throughout.
For the compound `CC1(C)N=C(c2cnn3cccc3c2)c2cccc(C#N)c2C1(C)C` [E 68], the inhibition of growth at 200 ppm in assay [1] (setting [5]) and in assay [2] (setting [6]) was at least 80% throughout.
As to `CC1(C)N=C(c2cnn3c(Cl)cc(Cl)c3c2)c2cccc(F)c2C1(C)C` [E 69], the inhibition of growth at 200 ppm in assay [1] (setting [5]), in assay [2] (setting [6]) and in assay [3] (setting [7]) was at least 80% throughout.
As to `CC1(C)N=C(c2cnn3c(F)cc(C#N)c3c2)c2cccc(F)c2C1(C)C` [E 25], the inhibition of growth at 200 ppm in assay [1] (setting [5]), in assay [2] (setting [6]) and in assay [3] (setting [7]) was at least 80% in each case.
For the compound `CC1(C)N=C(c2cnn3ccc(Br)c3c2)c2ccccc2C1=O` [E 67], the inhibition of growth at 200 ppm in assay [2] (setting [6]) and in assay [3] (setting [7]) was at least 80% each time.
Turning to `CC1(C)Cc2c(OC(F)F)cccc2C(c2cnn3cccc3c2)=N1` [E 39], in assay [1] (setting [5]), the inhibition of growth at 200 ppm is at least 80%.
`CC1(C)Cc2c(O)cccc2C(c2cnn3cccc3c2)=N1` [E 34]: the inhibition of growth at 200 ppm in assay [1] (setting [5]) and in assay [2] (setting [6]) was at least 80% in each case.
Take `C#Cc1cc(F)n2ncc(C3=NC(C)(C)C(C)(C)c4c(F)cccc43)cc12` [E 40]: the inhibition of growth at 200 ppm in assay [1] (setting [5]) and in assay [2] (setting [6]) was at least 80% throughout.
`CC1(C)N=C(c2cnn3ccc(Cl)c3c2)c2cccc(F)c2C1(C)C` [E 16]: the inhibition of growth at 200 ppm in assay [1] (setting [5]) and in assay [2] (setting [6]) was at least 80% in each case.
For `CC1(C)Cc2ccccc2C(c2cnn3cccc3c2)N1` (stereo not drawn) [E 20], in assay [1] (setting [5]), the inhibition of growth at 200 ppm was at least 80%.
`Cc1c(C2=NC(C)(C)C(C)(C)c3c(F)cccc32)cnn2cccc12` [E 93]: the inhibition of growth at 200 ppm in assay [1] (setting [5]) and in assay [2] (setting [6]) was at least 80% each time.
In the case of `CC1(C)Cc2c(cccc2C2CC2)C(c2cnn3cccc3c2)=N1` [E 59], the inhibition of growth at 200 ppm in assay [1] (setting [5]) is at least 80%.
For `CC1(C)N=C(c2cnn3cccc3c2)c2cccc(F)c2C1(C)C` [E 45], the inhibition of growth at 200 ppm in assay [4] was at least 80%.
As for `Cc1c(C2=NC(C)(C)C(C)(C)c3c(F)cccc32)cnn2c(F)ccc12` [E 95], the inhibition of growth at 200 ppm in assay [1] (setting [5]) and in assay [2] (setting [6]) was at least 80% in each case.
As to `Cc1c(C2=NC(C)(C)C(C)(C)c3c2ccc(F)c3F)cnn2cccc12` [E 81], the inhibition of growth at 200 ppm in assay [1] (setting [5]), in assay [4] and in assay [2] (setting [6]) was at least 80% throughout.
Consider `Cc1c(C2=NC(C)(C)C(C)(C)c3c(F)cccc32)cnn2c(Br)ccc12` [E 82], for which the inhibition of growth at 200 ppm in assay [1] (setting [5]), in assay [2] (setting [6]) and in assay [3] (setting [7]) was at least 80% throughout.
With `Cc1c(C2=NC(C)(C)C(C)(C)c3c(F)cccc32)cnn2c(C#N)ccc12` [E 83], the inhibition of growth at 200 ppm in assay [1] (setting [5]) and in assay [2] (setting [6]) was at least 80% each time.
Regarding `CC1(C)N=C(c2cnn3cccc3c2)c2ccc(Cl)c(F)c2C1(C)C` [E 94], the inhibition of growth at 200 ppm in assay [1] (setting [5]) and in assay [2] (setting [6]) was at least 80% in each case.
Turning to `CC1(C)Cc2c(F)cccc2C(c2cnn3ccnc3c2)=N1` [E 86], in assay [1] (setting [5]), the inhibition of growth at 200 ppm is at least 80%.
Consider `C#Cc1ccc2cc(C3=NC(C)(C)C(C)(C)c4c(F)cccc43)cnn12` [E 62], for which the inhibition of growth at 200 ppm in assay [1] (setting [5]), in assay [2] (setting [6]) and in assay [3] (setting [7]) was at least 80% in each case.
Turning to `CC1(C)N=C(c2cnn3c(C(F)(F)F)cc(C(F)(F)F)c3c2)c2cccc(F)c2C1(C)C` [E 36], the inhibition of growth at 200 ppm in assay [1] (setting [5]) was at least 80%.
With `CC1(C)N=C(c2cnn3c(C#N)cnc3c2)c2cccc(F)c2C1(F)F` [E 88], the inhibition of growth at 200 ppm in assay [1] (setting [5]) is at least 80%.
For the compound `Cc1cccc2c1CC(C)(C)N=C2c1cnn2cccc2c1` [E 4], the inhibition of growth at 200 ppm in assay [1] (setting [5]), in assay [2] (setting [6]) and in assay [3] (setting [7]) was at least 80% throughout.
Regarding `CC1(C)N=C(c2cnn3c(Cl)ccc3c2)c2cccc(F)c2C1(C)C` [E 13], the inhibition of growth at 200 ppm in assay [1], in assay [2] and in assay [3] was at least 80% throughout.
Turning to `CC1(C)N=C(c2cnn3c(I)ccc3c2)c2cccc(F)c2C1(C)C` [E 37], the inhibition of growth at 200 ppm in assay [1] (setting [5]), in assay [2] (setting [6]) and in assay [3] (setting [7]) was at least 80% in each case.
`CC1(C)Cc2c(F)cccc2C(c2cnn3c(F)cc(F)c3c2)=N1` [E 11]: the inhibition of growth at 200 ppm in assay [1] (setting [5]) and in assay [2] (setting [6]) was at least 80% in each case.
As for `CO/N=C(\C)c1cccc2c1CC(C)(C)N=C2c1cnn2cccc2c1` [E 56], the inhibition of growth at 200 ppm in assay [1] (setting [5]) and in assay [2] (setting [6]) was at least 80% throughout.
As for `CC1(C)N=C(c2cnn3c(Br)cnc3c2)c2cccc(F)c2C1(F)F` [E 91], the inhibition of growth at 200 ppm in assay [1] (setting [5]) was at least 80%.
As to `COc1cccc2c1CC(C)(C)N=C2c1cnn2c(F)ccc2c1` [E 23], the inhibition of growth at 200 ppm in assay [1] (setting [5]) and in assay [2] (setting [6]) was at least 80% each time.
Consider `Cc1nn2cccc2cc1C1=NC(C)(C)C(C)(C)c2c(F)cccc21` [E 92], for which the inhibition of growth at 200 ppm in assay [1] (setting [5]) and in assay [2] (setting [6]) was at least 80% each time.
Consider `CC1(C)N=C(c2cnn3c(Br)cc(Br)c3c2)c2cccc(F)c2C1(C)C` [E 44], for which the inhibition of growth at 200 ppm in assay [1] (setting [5]) was at least 80%.
In the case of `CC1(C)N=C(c2cnn3ccnc3c2)c2cccc(F)c2C1(F)F` [E 89], the inhibition of growth at 200 ppm in assay [1] (setting [5]) and in assay [2] (setting [6]) was at least 80% in each case.
Consider `CC1(C)Cc2ccccc2C(c2cnn3cccc3c2)=N1` [E 10, 3,3-dimethyl-1-pyrrolo[1,2-b]pyridazin-3-yl-4H-isoquinoline], for which the inhibition of growth at 200 ppm in assay [1] (setting [5]), in assay [2] (setting [6]) and in assay [3] (setting [7]) was at least 80% each time.
`CO/N=C(/C)c1cccc2c1CC(C)(C)N=C2c1cnn2cccc2c1` [E 57]: the inhibition of growth at 200 ppm in assay [1] (setting [5]) and in assay [2] (setting [6]) was at least 80% each time.
In the case of `CC1(C)N=C(c2cnn3ccnc3c2)c2cccc(F)c2C1(C)C` [E 85], the inhibition of growth at 200 ppm in assay [1] (setting [5]), in assay [2] (setting [6]) and in assay [3] (setting [7]) was at least 80% each time.
For `CC1(C)Cc2ccccc2C(c2cnn3c(Br)ccc3c2)=N1` [E 65], the inhibition of growth at 200 ppm in assay [1] (setting [5]) and in assay [3] (setting [7]) was at least 80% each time.
On to `CC1(C)N=C(c2cnn3c(C(F)(F)F)ccc3c2)c2cccc(F)c2C1(C)C` [E 43], for which the inhibition of growth at 200 ppm in assay [1] (setting [5]), in assay [2] (setting [6]) and in assay [3] (setting [7]) was at least 80% each time.
`CC1(C)N=C(c2cnn3ccc(Br)c3c2)c2ccccc2C1(F)F` [E 70]: the inhibition of growth at 200 ppm in assay [1] (setting [5]), in assay [2] (setting [6]) and in assay [3] (setting [7]) was at least 80% each time.
